Assay [1] in a line: Bacterial coaggregation assay (A. naeslundii PK29 with S. sanguis G9B). It is filed as cell-based, Actinomyces naeslundii PK29; Streptococcus sanguis G9B. The settings on record: Actinomyces naeslundii. The method, then:
(§1) A bacterial coaggregation assay was used to determine the ability of various amino sugars to interfere with lectin-mediated binding among various bacterial species. For instance, many Actinomyces naeslundii strains coaggregate with Streptococcus sanguis as a result of binding between a lectin produced by the A. naeslundii cells and β-galactose-containing structures on the surface of the streptococci. For the present assay, A. naeslundii PK29 and S. sanguis G9B were cultured overnight in a medium containing 2.5% tryptone, 1.5% yeast extract, 0.1% magnesium sulfate, and 1.0% fructose. The cells were then washed twice in a 1.0 mM potassium phosphate buffer (pH=6.8) containing 1.0 mM calcium chloride, 0.1 mM magnesium chloride, and 50.0 mM potassium chloride (buffered KCl), after which they were resuspended in buffered KCl at an optical density (540 nm) of 1.5. The coaggregations were performed by combining 0.5 ml of each bacterial suspension with 0.2 ml of 5.0% bovine serum albumin (BSA) and 0.8 ml of an appropriate concentration of a targeted anti-plaque agent in 3.0 ml capped polystyrene cuvettes. The cuvettes (path length 1 cm) were gently inverted at room temperature, and the optical density (540 nm) was determined as a function of time (2.0 min intervals; 20 min).
(§2) The instrument employed to measure optical density was a variable wavelength spectrophotometer (Gilson Respons® Spectrophotometer, bought from Gilson).
(§3) The activity of a tested compound was expressed as inhibition relative to buffer controls (i.e., % inhibition=[1-change in optical density (inhibitor)]/change in optical density [control])×100.
(§4) The ability of various amino sugars (prepared as described in Examples 1 and 2) to target to β-galactose-specific binding proteins on A. naeslundii and thus to interfere with coaggregation interactions between A. naeslundii and S. sanguis was investigated. Coaggregation of Actinomyces naeslundii PK29 and Streptococcus sanguis G9B was performed as described in the Methods section (Bacterial Coaggregation Assay) above. Inhibition was calculated as 1.0--the change in optical density (540 nm) in the sample containing compound tested/the change in optical density in the coaggregation buffer control.

Assay [2] has as its system coaggregation of Actinomyces naeslundii PK29 and Streptococcus sanguis G9B (β-galactose-specific binding proteins on A. naeslundii). The description is as above. It is filed as cell-based. The note with it: for inhibition compared to the parent saccharide, lactose: vs lactose. The method, then:
as §1, §2, §3, §4

For assay [3], the system named is Actinomyces naeslundii. In words: Antimicrobial activity determination (MIC). It is filed as cell-based. The settings on record: read-out: Minimum Inhibitory Concentration, Actinomyces naeslundii. On the procedure: (§5) The antimicrobial activity of the targeted agents was assessed by determining the minimum inhibitory concentration (MIC). Pure cultures of various strains of oral bacterial species as indicated in Table 3 were combined with serial dilutions of the targeted agents in beef heart infusion broth (BHI); starting bacterial concentrations were approximately 1.0×10E6 colony forming units (CFU) per ml. The mixtures were incubated aerobically at 37 degrees C. and the optical density (540 nm, path length 1 cm) of the cultures was measured at 0.0, 24.0 and 48.0 hr using Bausch and Lomb Spec 20 variable wavelength spectrophotometer.
(§6) The amino sugars within the scope of the invention and other compounds were tested for their bacteriostatic effects on the growth of several species of oral bacteria.

The subject of another assay is Streptococcus sanguis. In words: Antimicrobial activity determination (MIC). It is filed as cell-based. The note with it: read-out: Minimum Inhibitory Concentration, Streptococcus sanguis. On the procedure:
as §5, §6

A further assay concerns Streptococcus sobrinus. In words: Antimicrobial activity determination (MIC). The class given is cell-based, Streptococcus sobrinus 6715. The settings on record: read-out: Minimum Inhibitory Concentration, Streptococcus sobrinus. On the procedure: as §5, §6
The subject of another assay is Neisseria subflava. As to the kind of experiment: Antimicrobial activity determination (MIC). The class given is cell-based, Neisseria subflava A1078. The settings on record: read-out: Minimum Inhibitory Concentration, Neisseria subflava. On the procedure: as §5, §6
A further assay relates to Porphyromonas gingivalis. As to the kind of experiment: Antimicrobial activity determination (MIC). It is filed as cell-based, Porphyromonas gingivalis W83. The note with it: read-out: Minimum Inhibitory Concentration, Porphyromonas gingivalis. On the procedure: as §5, §6
Another assay relates to Prevotella intermedius. In words: Antimicrobial activity determination (MIC). The class given is cell-based, Prevotella intermedius 25611. The settings on record: BHI broth, 37 degrees C., aerobic, read-out: Minimum Inhibitory Concentration, Prevotella intermedius. On the procedure: as §5, §6
In a further assay the test system is Veillonella dispar. In words: Antimicrobial activity determination (MIC). The settings on record: BHI broth, 37 degrees C., aerobic, read-out: Minimum Inhibitory Concentration, Veillonella dispar. It is filed as cell-based, Veillonella dispar 17745. On the procedure:
as §5, §6

In the next assay the test system is A. naeslundii PK29. In words: Latex bead-bacterial agglutination assay (asialofetuin-coated latex beads). The class given is cell-based, Actinomyces naeslundii PK29. On the procedure:
A latex bead agglutination assay was utilized to determine the effects of the amino sugars on lectin-mediated bacterial adherence to glycoprotein-coated surfaces. Latex beads (6.0 micrometer diameter) were prepared by suspending them in a 0.5 mg/ml solution of asialofetuin (a glycoprotein rich in oligosaccharide side chains which terminate in β-galactosyl groups) in 20.0 mM trishydroxyaminomethane buffer (ph=8.2) containing 0.73% glycine, 1.0% sodium chloride, 0.1 mM calcium chloride, and 0.02% sodium azide (TGS buffer). The beads were treated for 30.0 min at 37 degrees C. after which they were washed and resuspended in 0.1% BSA in TGS buffer. A. naeslundii PK29 cells were cultured as described in Bacterial Coaggregation Assay, washed, and resuspended in TGS buffer to an optical density (540 nm) of 1.5. The bacterial suspension (0.1 ml) and the prepared latex beads (1.0 ml) were combined with an appropriate concentration of inhibitor (0.8 ml) in 3.0 ml capped polystyrene cuvettes. The cuvettes were gently inverted at room temperature, and optical density (OD 540nm, 1 cm path length) was monitored at 2.0 min intervals for 20.0 min. The instrument employed was Gilson Response®.
The ability of the amino sugars to inhibit bacterial adhesion was also tested using the latex bead assay described above (Methods section). This assay measures the ability of the test agents to interfere with bacterial adhesion to a glycoprotein-coated solid surface, which is analogous to pellicle coated tooth surface. Agglutination of asialofetuin-coated latex beads by A. naeslundii PK29 performed as described above. Inhibition was calculated as 1.0--the change in optical density (540 nm) in the sample containing the inhibitor/the change in optical density in the coaggregation buffer control.

In a further assay the test system is Actinomyces viscosus. The note with it: cited from earlier work.
Assay [4] relates to Actinomyces naeslundii. The settings on record: cited from earlier work.
Assay [5] concerns Actinomyces strains 12104 and LY7. The note with it: cited from earlier work.
A further assay has as its system Clinical plaque strains. The settings on record: mouth rinse, five human individuals; cited from earlier work.
Where [6] appears, read: BHI broth, 37 degrees C., aerobic.

Results on eleven compounds are retold here after patent publication US5362480A, “Oral hygiene compositions containing amino sugars as antiplaque agents” (Lever Brothers Company, Division of Conopco, Inc., priority 1992, dated 1994).

Converted amounts (≈) assume the structure as drawn. Read-outs that look alike come from different tables or passages of the source.

For orientation: inhibition means the change of the read-out against control, counted positive when it falls. High values mean a strong effect, low ones a weak effect. As for `CCCCCCCCCCN[C@@H]1O[C@H](CO)[C@@H](O[C@@H]2O[C@H](CO)[C@H](O)[C@H](O)[C@H]2O)[C@H](O)[C@H]1O` [N-decyl lactosylamine], in assay [1], the inhibition at 1000 µM is 11%. In addition, in [1], the inhibition at 2100 µM was determined as 30%. The compound further returned an inhibition at 3000 µM in assay [1] of 64%. Moreover, the “inhibition of β-galactose-specific coaggregation (in words)” value in assay [2] is “effective inhibitors”. Besides, the “inhibition compared to the parent saccharide, lactose” value in assay [2] is listed as “slighly improved inhibition”. Further, the MIC came to 30 µg/mL (≈ 62.3 µM) in the assay with Actinomyces naeslundii [3] (setting [6]), 600 µg/mL (≈ 1250 µM) with Streptococcus sanguis (setting [6]), 30 µg/mL (≈ 62.3 µM) with Streptococcus sobrinus (setting [6]) and 60 µg/mL (≈ 125 µM) with Neisseria subflava (setting [6]).
On to `OC[C@H]1O[C@@H](O[C@H]2[C@H](O)[C@@H](O)C(O)O[C@@H]2CO)[C@H](O)[C@@H](O)[C@H]1O` (stereo partly drawn) [Lactose, reference compound], for which testing at 3000 µM in assay [1] gave an inhibition of 61%.
For the compound `CCCCCCCCCCCCOS(=O)(=O)[O-].[Na+]` [Sodium dodecyl sulfate, reference compound], the MIC in the assay on Actinomyces naeslundii [3] worked out at 8 µg/mL; in the assay with Streptococcus sanguis, 15 µg/mL; with Streptococcus sobrinus, 60 µg/mL; with Porphyromonas gingivalis, 2 µg/mL; in the assay with Prevotella intermedius it was 16 µg/mL; in the assay on Veillonella dispar it was 60 µg/mL. The MIC in the assay on Neisseria subflava amounted to 8 µg/mL.
Regarding `CCCCCCCCNC1O[C@H](CO)[C@@H](O)[C@H](O)[C@H]1O` (stereo partly drawn) [N-octyl glucosylamine, reference compound], the inhibition at 3400 µM in [1] worked out at 0%. Besides, the “inhibition of β-galactose-specific coaggregation (in words)” value in assay [2] is “lack of inhibition”.
`CCCCCCCCCCN[C@@H]1O[C@H](CO)[C@H](O)[C@H](O)[C@H]1O` [N-decyl galactosylamine] showed an inhibition at 1800 µM in the assay with A. naeslundii PK29 (Actinomyces naeslundii, PK29) of 51%. In addition, the “inhibition of agglutination compared to galactose” value in the assay on A. naeslundii PK29 (vs galactose) is “substantially more potent inhibitor”.
With `CCCCCCCN[C@@H]1O[C@H](CO)[C@@H](O[C@@H]2O[C@H](CO)[C@H](O)[C@H](O)[C@H]2O)[C@H](O)[C@H]1O` [N-heptyl lactosylamine], in assay [1], the inhibition at 1100 µM turned out to be 23%. In assay [1], this compound displayed an inhibition at 3000 µM of 63%. The same compound had an inhibition at 11400 µM in [1] of 79%. Besides, the “inhibition of β-galactose-specific coaggregation (in words)” value in assay [2] is on record as “effective inhibitors”. Besides, the “inhibition compared to the parent saccharide, lactose” value in assay [2] was “slighly improved inhibition”. Moreover, the MIC was 500 µg/mL (≈ 1140 µM) in the assay with Actinomyces naeslundii [3] (setting [6]); over 1000 µg/mL in the assay on Streptococcus sanguis (setting [6]); 1000 µg/mL (≈ 2280 µM) in the assay on Streptococcus sobrinus (setting [6]); 500 µg/mL (≈ 1140 µM) in the assay on Porphyromonas gingivalis (setting [6]); 500 µg/mL (≈ 1140 µM) in the assay with Neisseria subflava (setting [6]).
With `CCCCCCCCCCNC1O[C@H](CO)[C@@H](O)[C@H](O)[C@H]1O` (stereo partly drawn) [N-decyl glucosylamine], in the assay with A. naeslundii PK29, the “inhibition of agglutination of glycoprotein-coated latex beads (in words)” value is “not an effective inhibitor”. This compound also registered an inhibition at 1800 µM in the assay on A. naeslundii PK29 (Actinomyces naeslundii, PK29) of 9%. Also, the MIC in the assay on Actinomyces naeslundii [3] (setting [6]) was over 5000 µg/mL.
Take `CCOC1O[C@H](CO)[C@H](O)[C@H](O[C@@H]2O[C@H](CO)[C@H](O)[C@H](O)[C@H]2NC(C)=O)[C@H]1O` (stereo partly drawn) [N-acetyl-galactosamine-β1,3-galactose-O-ethyl]: the “inhibition of binding to human erythrocytes” value in the assay with Actinomyces viscosus and in the assay with Actinomyces naeslundii [4] was “inhibitor of binding” throughout.
`O=C[C@H](O)[C@@H](O)[C@@H](O)[C@H](O)CO` [Galactose, reference compound]: the inhibition at 2800 µM in assay [1] was found to be 10%; in the assay with A. naeslundii PK29 (Actinomyces naeslundii, PK29) it was 17%.
In assay [1], `CCCCCCCN[C@@H]1O[C@H](CO)[C@H](O)[C@H](O)[C@H]1O` [N-heptyl galactosylamine] displayed an inhibition at 2900 µM of 20%. In addition, in assay [2], the “inhibition of β-galactose-specific coaggregation (in words)” value is recorded as “effective inhibitors”. In assay [2] (at the concentration tested, vs galactose), the “inhibition of bacterial coaggregation compared to the parent saccharide, galactose” value is listed as “approximately twice as much”. For the same compound, the MIC in the assay with Actinomyces naeslundii [3] (setting [6]) was 250 µg/mL (≈ 901 µM); with Streptococcus sanguis (setting [6]) it was over 1000 µg/mL; with Streptococcus sobrinus (setting [6]) it was 1000 µg/mL (≈ 3610 µM); in the assay on Porphyromonas gingivalis (setting [6]), 125 µg/mL (≈ 451 µM); in the assay with Neisseria subflava (setting [6]) it was 125 µg/mL (≈ 451 µM).
With `CCO[C@H]1O[C@H](CO)[C@H](O)[C@H](O[C@@H]2O[C@H](CO)[C@H](O)[C@H](O)[C@H]2NC(C)=O)[C@H]1O` [GalNAcβ-3Galα1-O-ethyl], the adherence entry in assay [5] is on record as “blocked adherence”. For the same compound, in the assay on Clinical plaque strains, the plaque inhibitory activity entry is “plaque inhibitory activity”.
